The target of test [1] is T1, DNA (cytosine-5)-methyltransferase 1 (Homo sapiens, UniProt P26358). The test is described as follows: Inhibition of DNMT1 in human DOHH-2 cells assessed as inhibition of 5-methylcytosine level at 10 to 1000 nM incubated for 48 hrs by Western blot analysis. It counts as cell-based. As to conditions: dose 10-1000 nM.
The next test relates to U2932. As to the kind of experiment: Antiproliferative activity against human U2932 cells assessed as inhibition of cell viability measured after 72 hrs by MTT assay. The format is functional, cell-based. The settings on record: U2932, 72 h. In general terms: Formazan colour is commonly taken as a measure of viable cells.
In test [2] the target is T1, DNA (cytosine-5)-methyltransferase 1. The test is described as follows: Inhibition of DNMT1 in human DOHH-2 cells assessed as inhibition of DNA methylation incubated for 48 hrs by Western blot analysis. As to conditions: dose 10-1000 nM. It counts as cell-based.
Test [3] relates to TMD8. As to the kind of experiment: Antiproliferative activity against human TMD8 cells assessed as inhibition of cell viability measured after 72 hrs by MTT assay. The format is functional, cell-based. As to conditions: TMD8, 72 h.
Test [4] concerns the target T1, DNA (cytosine-5)-methyltransferase 1. As to the kind of experiment: Inhibition of DNMT1 in human DOHH-2 cells assessed as inhibition of H3K9 methylation level incubated for 48 hrs by Western blot analysis. It counts as cell-based. As to conditions: dose 10-1000 nM. (In general: In western blotting, separated proteins are transferred to a membrane and probed.)
The test system of the next test is Jurkat. The test is described as follows: Antiproliferative activity against human Jurkat cells assessed as inhibition of cell viability measured after 72 hrs by MTT assay. It counts as functional, cell-based.
The subject of the next test is DOHH-2. As to the kind of experiment: Antiproliferative activity against human DOHH-2 cells assessed as inhibition of cell viability measured after 72 hrs by MTT assay. The format is functional, cell-based. The settings on record: DOHH-2, 72 h.
The target in test [5] is T1, DNA (cytosine-5)-methyltransferase 1. The test is described as follows: Inhibition of DNMT1 (unknown origin) at 1 uM preincubated for 15 mins followed by substrate and [3H-SAM] addition and measured after 60 mins by microbeta analysis relative to control. The settings on record: time 75.0 min.
Another test deals with MDA-MB-231. The test is described as follows: Antiproliferative activity against human MDA-MB-231 cells assessed as inhibition of cell viability measured after 72 hrs by MTT assay. The format is functional, cell-based. The settings on record: MDA-MB-231, 72 h.
For another test, the system named is HepG2. The test is described as follows: Antiproliferative activity against human HepG2 cells assessed as inhibition of cell viability measured after 72 hrs by MTT assay. It counts as functional, cell-based. As to conditions: HepG2, 72 h.
Another test deals with MV4-11. As to the kind of experiment: Antiproliferative activity against human MV4-11 cells assessed as inhibition of cell viability measured after 72 hrs by MTT assay. It counts as functional, cell-based. The settings on record: MV4-11, 72 h.
The target of test [6] is T1, DNA (cytosine-5)-methyltransferase 1. As to the kind of experiment: Inhibition of DNMT1 (unknown origin) at 5 uM preincubated for 15 mins followed by substrate and [3H-SAM] addition and measured after 60 mins by microbeta analysis relative to control. As to conditions: time 75.0 min.
The test system of another test is HT-29. The test is described as follows: Antiproliferative activity against human HT-29 cells assessed as inhibition of cell viability measured after 72 hrs by MTT assay. The format is functional, cell-based. As to conditions: HT-29, 72 h.
A further test has as its system A549. As to the kind of experiment: Antiproliferative activity against human A549 cells assessed as inhibition of cell viability measured after 72 hrs by MTT assay. The format is functional, cell-based. As to conditions: A549, 72 h.
For the next test, the system named is HeLa. As to the kind of experiment: Antiproliferative activity against human HeLa cells assessed as inhibition of cell viability measured after 72 hrs by MTT assay. The format is functional, cell-based.
In another test the test system is RPMI-8226. As to the kind of experiment: Antiproliferative activity against human RPMI-8226 cells assessed as inhibition of cell viability measured after 72 hrs by MTT assay. The settings on record: RPMI-8226, 72 h. It counts as functional, cell-based.
Another test has as its system THP-1. As to the kind of experiment: Antiproliferative activity against human THP-1 cells assessed as inhibition of cell viability measured after 72 hrs by MTT assay. It counts as functional, cell-based. As to conditions: THP-1, 72 h.
In a further test the test system is MOLM-13. The test is described as follows: Antiproliferative activity against human MOLM-13 cells assessed as inhibition of cell viability measured after 72 hrs by MTT assay. It counts as functional, cell-based. As to conditions: MOLM-13, 72 h.
A further test deals with NCI-H1299. As to the kind of experiment: Antiproliferative activity against human NCI-H1299 cells assessed as inhibition of cell viability measured after 72 hrs by MTT assay. As to conditions: NCI-H1299, 72 h. It counts as functional, cell-based.
For test [7], the target named is DNA (cytosine-5)-methyltransferase 3B (Homo sapiens, UniProt Q9UBC3). As to the kind of experiment: Inhibition of DNMT3B (unknown origin) preincubated for 15 mins followed by substrate and [3H-SAM] addition and measured after 60 mins by microbeta analysis.
Another test relates to HCT-116. The test is described as follows: Antiproliferative activity against human HCT-116 cells assessed as inhibition of cell viability measured after 72 hrs by MTT assay. The settings on record: HCT-116, 72 h. It counts as functional, cell-based.
In another test the test system is U-937. As to the kind of experiment: Antiproliferative activity against human U-937 cells assessed as inhibition of cell viability measured after 72 hrs by MTT assay. The format is functional, cell-based. The settings on record: U-937, 72 h.
A short description of test [8]: Antitumor activity against human TMD8 cells harbouring […] xenografted in mouse model assessed as body weight change at 12.5 mg/kg, po QD relative to control. It counts as functional. Background: In xenograft studies the graft and the host belong to different species.
Test [9] in a line: Antitumor activity against human TMD8 cells harbouring […] xenografted in mouse model assessed as tumor inhibition rate at 12.5 mg/kg, po QD relative to control. It counts as functional. Also noted: scale not given: the % may be the effect or the level left.
A short description of test [10]: Antitumor activity against human TMD8 cells harbouring TP53 mutant xenografted in mouse model assessed as tumor inhibition rate at 12.5 mg/kg, po QD relative to control. The format is functional. Also noted: scale not given: the % may be the effect or the level left.
A short description of test [11]: Antitumor activity against human TMD8 cells harbouring TP53 mutant xenografted in mouse model assessed as body weight change at 12.5 mg/kg, po QD relative to control. It counts as functional.
A short description of test [12]: Antitumor activity against human TMD8 cells harbouring […] xenografted in mouse model assessed as tumor inhibition rate at 2.5 mg/kg, ip QD relative to control. It counts as functional. The arrangement: scale not given: the % may be the effect or the level left.
Test [13] is described as follows: Antitumor activity against human TMD8 cells harbouring TP53 mutant xenografted in mouse model assessed as tumor inhibition rate at 2.5 mg/kg, ip QD relative to control. It counts as functional. The arrangement: scale not given: the % may be the effect or the level left.
Test [14] can be described thus: Upregulation of FAS mRNA level in human DOHH-2 cells assessed as fold change at 300 nM measured after 6 days by PCR analysis. The format is functional. The settings on record: time 6 day.
A short description of test [15]: Antitumor activity against human TMD8 cells harbouring TP53 mutant xenografted in mouse model assessed as body weight change at 2.5 mg/kg, ip QD relative to control. The format is functional.
Test [16] is described as follows: Antitumor activity against human TMD8 cells harbouring […] xenografted in mouse model assessed as body weight change at 2.5 mg/kg, ip QD relative to control. The format is functional.
Test [17] in a line: Upregulation of BAX mRNA level in human DOHH-2 cells assessed as fold change at 300 nM measured after 6 days by PCR analysis. The format is functional. The settings on record: time 6 day.
Test [18] in a line: Antiproliferative activity against human NK-YS cells assessed as inhibition of cell viability measured after 72 hrs by MTT assay. The format is functional, cell-based.
Test [19] relates to TMD8. The test is described as follows: Antitumor activity against human TMD8 cells xenografted in mouse model assessed as tumor inhibition rate at 2.5 mg/kg, ip QD relative to control. The arrangement: scale not given: the % may be the effect or the level left. It counts as functional.

Active and inactive are the calls of the source. The calls are words filed in the database; no cut-off is given here.

T1 sequence (P26358 whole entry): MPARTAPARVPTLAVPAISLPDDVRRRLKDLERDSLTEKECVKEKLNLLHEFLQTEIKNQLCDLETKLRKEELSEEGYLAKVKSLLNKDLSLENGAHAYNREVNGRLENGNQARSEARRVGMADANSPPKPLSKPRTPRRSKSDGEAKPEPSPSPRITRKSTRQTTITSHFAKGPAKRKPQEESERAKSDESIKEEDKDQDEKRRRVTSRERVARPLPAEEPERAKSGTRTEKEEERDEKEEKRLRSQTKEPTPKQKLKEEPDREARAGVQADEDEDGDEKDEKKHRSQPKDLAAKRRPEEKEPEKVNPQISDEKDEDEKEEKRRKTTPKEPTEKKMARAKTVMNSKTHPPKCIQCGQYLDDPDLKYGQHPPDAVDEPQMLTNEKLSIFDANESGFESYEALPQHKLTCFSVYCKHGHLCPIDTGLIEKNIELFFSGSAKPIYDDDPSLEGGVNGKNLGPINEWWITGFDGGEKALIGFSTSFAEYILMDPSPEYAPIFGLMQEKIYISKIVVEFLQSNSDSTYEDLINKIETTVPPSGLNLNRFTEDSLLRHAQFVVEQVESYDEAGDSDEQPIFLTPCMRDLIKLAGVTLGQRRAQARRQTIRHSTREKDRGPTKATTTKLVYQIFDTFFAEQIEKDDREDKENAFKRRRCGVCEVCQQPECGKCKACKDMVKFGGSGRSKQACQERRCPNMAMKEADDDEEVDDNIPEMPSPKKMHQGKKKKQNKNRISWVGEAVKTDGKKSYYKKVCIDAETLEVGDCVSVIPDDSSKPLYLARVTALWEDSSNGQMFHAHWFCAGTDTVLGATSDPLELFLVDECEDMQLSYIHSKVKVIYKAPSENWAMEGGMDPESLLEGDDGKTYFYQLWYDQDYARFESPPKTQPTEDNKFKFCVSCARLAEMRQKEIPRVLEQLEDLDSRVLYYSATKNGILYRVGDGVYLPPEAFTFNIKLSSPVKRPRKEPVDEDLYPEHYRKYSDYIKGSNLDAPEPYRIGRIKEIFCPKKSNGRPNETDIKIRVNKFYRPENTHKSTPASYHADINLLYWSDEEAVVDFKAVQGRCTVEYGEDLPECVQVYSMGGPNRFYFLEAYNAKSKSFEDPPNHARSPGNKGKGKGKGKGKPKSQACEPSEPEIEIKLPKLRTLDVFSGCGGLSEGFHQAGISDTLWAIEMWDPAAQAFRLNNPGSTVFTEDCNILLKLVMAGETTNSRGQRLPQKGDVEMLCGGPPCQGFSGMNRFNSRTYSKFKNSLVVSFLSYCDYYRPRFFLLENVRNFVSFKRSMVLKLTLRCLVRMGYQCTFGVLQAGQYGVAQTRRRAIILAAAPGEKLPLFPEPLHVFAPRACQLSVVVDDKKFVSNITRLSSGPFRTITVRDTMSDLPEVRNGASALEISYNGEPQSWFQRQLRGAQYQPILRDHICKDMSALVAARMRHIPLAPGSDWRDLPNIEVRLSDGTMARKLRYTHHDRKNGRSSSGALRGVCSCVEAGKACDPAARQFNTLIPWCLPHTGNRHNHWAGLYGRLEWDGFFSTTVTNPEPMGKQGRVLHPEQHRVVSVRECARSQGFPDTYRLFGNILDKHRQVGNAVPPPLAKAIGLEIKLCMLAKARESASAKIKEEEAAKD

A word on the inhibition: it is how much of the control response was suppressed. Broadly, the IC50 is the point on the concentration scale where inhibition reaches its midpoint. Take `COc1cc2c(NC3CCN(C)CC3)cc(-c3ccc(C)o3)nc2cc1OCCCN1CCCC1`: the inhibition result in test [1] was “Active”. Also, the IC50 was determined as 2130 nM in the test with U2932, 190 nM in the test with TMD8 [3], 410 nM with Jurkat and 230 nM with DOHH-2. In addition, the inhibition result in test [2] and in test [4] was “Dose-dependent-effect” each time.

Consider `Cc1cc(Nc2ccc(NC(=O)c3ccc(Nc4ccnc5ccccc45)cc3)cc2)nc(N)n1`, for which the inhibition in test [5] came to 77%; in test [6], 3.4%. Besides, the IC50 with MDA-MB-231 was found to be 5390 nM; in the test on HepG2, 11600 nM; in the test on MV4-11, 980 nM; in the test on HT-29, 490 nM; in the test with A549 it was 9500 nM; with HeLa it was 21600 nM. Moreover, the IC50 in the test on RPMI-8226 came to 1340 nM; in the test with THP-1 it was 2470 nM; with MOLM-13, 1190 nM; in the test with NCI-H1299, 12200 nM; in test [7], 1910 nM; with HCT-116, 820 nM. In addition, in the test with U-937, the IC50 stood at 4120 nM.

Consider `Nc1cc(F)ccc1NC(=O)c1ccc(CNC(=O)/C=C/c2cccnc2)cc1` [TUCIDINOSTAT], for which the Activity in test [8] is recorded as 2.5%; in test [9], 51.5%; in test [10], 61%; in test [11], -2.3%.

For `Nc1ncn([C@@H]2O[C@H](CO)[C@@H](O)[C@H]2O)c(=O)n1` [AZACITIDINE], the Activity in test [12] was 52.1%; in test [13] it was 43.6%; in test [15] it was -5.9%; in [16], -5.9%; with TMD8 [19], 53.02%. The IC50 was found to be 1830 nM in the test with U2932; 2840 nM in the test with TMD8 [3]; 3280 nM in test [18]; 1080 nM with Jurkat; 340 nM in the test with DOHH-2. In addition, the figures for the “fold change (FC)” value in [14] and in test [17] were 1.8 and 1.86, respectively.

As for `CCc1c(C#N)c(SC(C(N)=O)c2ccccc2)nc(N2CCC(N)CC2)c1C#N` (stereo not drawn), the IC50 stood at 28900 nM in the test with U2932; 21400 nM in the test on TMD8 [3]; 16700 nM in test [18]; 19800 nM with Jurkat; 11100 nM in the test with DOHH-2.

(Values after ChEMBL document CHEMBL6153174, “Design and Synthesis of Novel Deazapurine DNMT 1 Inhibitors with In Vivo Efficacy in DLBCL” (J Med Chem, 2025).)
